Reference: patent US20260317344A1, “EGFR INHIBITORS FOR TREATING DISEASE” (BLOSSOMHILL THERAPEUTICS, INC., priority 2023, published 2026)
pIC50: −log10 of the molar value.

Tests used:
EGFR (D770_N771insNPG) = EGFR (D770_N771insNPG) (Homo sapiens, UniProt P00533, INS770NPG); experiment: HotSpot radiometric kinase assay, inhibition of EGFR (D770_N771insNPG) mutant; type: biochemical; conditions: 33P ATP, room temperature, 120 m
Description: (§1) Biochemical Assays for inhibition of wild-type and mutant EGFRs
(§2) Briefly, specific kinase/substrate pairs along with required cofactors were prepared in reaction buffer; 20 mM HEPES pH 7.5, 10 mM […], 1 mM EGTA, 0.02% Brij35, 0.02 mg/ml BSA, 0.1 mM Na3VO4, 2 mM DTT, 1% DMSO. Compounds were delivered into the reaction, followed ~20 minutes later by addition of a mixture of ATP (Sigma, St. Louis MO) and ^33P ATP (Perkin Elmer, Waltham MA) to a final concentration of […]. Reactions were carried out at room temperature for 120 m, followed by spotting of the reactions onto P81 ion exchange filter paper (Whatman Inc., Piscataway, NJ). Unbound phosphate was removed by extensive washing of filters in 0.75% phosphoric acid. […] IC50 values and curve fits were obtained using Prism (GraphPad Software).

[1] = target: T1, pEGFR, NCI-H1975 cells (L858R/T790M EGFR) (Homo sapiens, UniProt P00533, L858R/T790M); experiment: Cellular EGFR phosphorylation assay (LANCE Ultra TR-FRET) in NCI-H1975 cells; type: cell-based; conditions: 4 hours at 37° C., read-out: H1975 pEGFR IC50
T1 construct: pEGFR (Tyr1068) TR-FRET
Description: (§3) Cellular EGFR Phosphorylation Assays
(§4) EGFR phosphorylation assays were conducted in NSCLC cells with EGFR activation mutations. PC-9 cells (purchased from Aldrich-Sigma) carry a Glu746-Ala750 deletion (d746-750) mutation in exon 19 of the EGFR gene and NCI-H1975 cells (purchased from ATCC) carry both L858R activation mutation and T790M gatekeeper mutation in the EGFR gene. A431 cells (purchased from ATCC) with amplification of wildtype EGFR, derived from epidermoid carcinoma, were used to measure the activity against wildtype EGFR. All cells were seeded in 96-well plates. For PC-9 and NCI-H1975 cells, 50 thousand cells were seeded per well. For A431 cells, 30 thousand cells were seeded per well. The next day, cells were exposed to compound for 4 hours at 37° C. and 5% CO2. Compounds were diluted in DMSO and added to cells in a 9-dose, 3-fold dilution, titration curve using TECAN d300e liquid dispenser. For A431 cells, 40 ng/mL of EGF was added to the media for the final 10 minutes of incubation. EGFR phosphorylation was measured using phospho-EGFR (Try1068) LANCE Ultra TR-FRET Detection Kit (TRF4015M) from PerkinElmer according to manufacturer's instructions. In brief, cells were lysed with 40 μL of lysis buffer plus 1× Halt protease and phosphatase inhibitor cocktail (Thermo 78441) and by incubation at room temperature for 1 h on a microplate shaker (350 rpm). 15 μ L of cell lysate was transferred to 384-well white plate and 5 μL of Europium- and ULight-labeled antibodies diluted in 1× detection buffer was added to each well. After 4-6 hours of incubation at room temperature, plates were then read on a TECAN Sparks multimode microplate reader. Data was analyzed using GraphPad Prism 9 (GraphPad Software, San Diego, CA) to obtain IC50 values.

EGFR (D746-750/C797S) = EGFR (D746-750/C797S) (Homo sapiens, UniProt P00533, C797S/DEL746-750); experiment: HotSpot radiometric kinase assay, inhibition of EGFR 746-750/C797S mutant; type: biochemical; conditions: 33P ATP, room temperature, 120 m
Description: as §1, §2

[2] = target: T2, pEGFR, A431 cells (wildtype EGFR) (Homo sapiens, UniProt P00533); experiment: Cellular EGFR phosphorylation assay (LANCE Ultra TR-FRET) in A431 cells; type: cell-based; conditions: 4 hours at 37° C., 40 ng/mL EGF for the final 10 minutes, read-out: A431 pEGFR IC50
T2 construct: pEGFR (Tyr1068) TR-FRET
Description: as §3, §4

EGFR (L858R/T790M/C797S) = EGFR (L858R/T790M/C797S) (Homo sapiens, UniProt P00533, C797S/L858R/T790M); experiment: HotSpot radiometric kinase assay, inhibition of EGFR L858R/T790M/C797S mutant; type: biochemical; conditions: 33P ATP, room temperature, 120 m
Description: as §1, §2

NCI-H1975 cells = experiment: 5-Day CellTiter Glo (CTG) cell proliferation assay, NCI-H1975; type: cell-based; conditions: Homo sapiens; NCI-H1975 cells (L858R/T790M EGFR), 5-day CTG proliferation, 120 hours; read-out: H1975 IC50
Description: (§5) 5-Day CellTiter Glo (CTG) Cell Proliferation Assays (PC9, H1975, H827)
(§6) Cell proliferation assays were carried out in NSCLC cells with EGFR activation mutations. Both PC-9 cells and HCC827 cells (purchased from DSMZ) carry a Glu746-Ala750 deletion (d746-750) mutation in exon 19 of the EGFR gene and NCI-H1975 cells carry both L858R activation mutation and T790M gatekeeper mutation in the EGFR gene. One thousand PC-9, NCI-H1975 or HCC827 cells/100 μL per well were seeded in 96-well black plate with transparent bottom and then treated with indicated compounds in a 9-dose dilution series dispensed using TECAN d300e liquid dispenser. Cells were incubated with compounds for 120 hours at 37° C. and 5% CO2. Cell proliferation was measured using CellTiter-Glo 2.0 luciferase-based ATP detection assay (Promega, Madison, WI) at […] per well following the manufacturer's protocol. Plates were then read on a TECAN Sparks multimode microplate reader. Data was analyzed using GraphPad Prism 9 (GraphPad Software, San Diego, CA) to obtain IC50 values.

[3] = target: T3, pEGFR, PC-9 cells (d746-750 EGFR) (Homo sapiens, UniProt P00533, DEL746-750); experiment: Cellular EGFR phosphorylation assay (LANCE Ultra TR-FRET) in PC-9 cells; type: cell-based; conditions: 4 hours at 37° C., read-out: PC-9 pEGFR IC50
T3 construct: pEGFR (Tyr1068) TR-FRET
Description: as §3, §4

EGFR (D746-750) = EGFR (D746-750) (Homo sapiens, UniProt P00533, DEL746-750); experiment: HotSpot radiometric kinase assay, inhibition of EGFR 746-750 mutant; type: biochemical; conditions: 33P ATP, room temperature, 120 m
Description: as §1, §2

HCC827 cells = experiment: 5-Day CellTiter Glo (CTG) cell proliferation assay, HCC827; type: cell-based; conditions: Homo sapiens; HCC827 cells (d746-750 EGFR), 5-day CTG proliferation, 120 hours; read-out: HCC827 IC50
Description: as §5, §6

PC-9 cells = experiment: 5-Day CellTiter Glo (CTG) cell proliferation assay, PC-9; type: cell-based; conditions: Homo sapiens; PC-9 cells (d746-750 EGFR), 5-day CTG proliferation, 120 hours; read-out: PC-9 IC50
Description: as §5, §6

EGFR (L858R/T790M/C797S), sequence (P00533 25-1210 T790M/C797S/L858R): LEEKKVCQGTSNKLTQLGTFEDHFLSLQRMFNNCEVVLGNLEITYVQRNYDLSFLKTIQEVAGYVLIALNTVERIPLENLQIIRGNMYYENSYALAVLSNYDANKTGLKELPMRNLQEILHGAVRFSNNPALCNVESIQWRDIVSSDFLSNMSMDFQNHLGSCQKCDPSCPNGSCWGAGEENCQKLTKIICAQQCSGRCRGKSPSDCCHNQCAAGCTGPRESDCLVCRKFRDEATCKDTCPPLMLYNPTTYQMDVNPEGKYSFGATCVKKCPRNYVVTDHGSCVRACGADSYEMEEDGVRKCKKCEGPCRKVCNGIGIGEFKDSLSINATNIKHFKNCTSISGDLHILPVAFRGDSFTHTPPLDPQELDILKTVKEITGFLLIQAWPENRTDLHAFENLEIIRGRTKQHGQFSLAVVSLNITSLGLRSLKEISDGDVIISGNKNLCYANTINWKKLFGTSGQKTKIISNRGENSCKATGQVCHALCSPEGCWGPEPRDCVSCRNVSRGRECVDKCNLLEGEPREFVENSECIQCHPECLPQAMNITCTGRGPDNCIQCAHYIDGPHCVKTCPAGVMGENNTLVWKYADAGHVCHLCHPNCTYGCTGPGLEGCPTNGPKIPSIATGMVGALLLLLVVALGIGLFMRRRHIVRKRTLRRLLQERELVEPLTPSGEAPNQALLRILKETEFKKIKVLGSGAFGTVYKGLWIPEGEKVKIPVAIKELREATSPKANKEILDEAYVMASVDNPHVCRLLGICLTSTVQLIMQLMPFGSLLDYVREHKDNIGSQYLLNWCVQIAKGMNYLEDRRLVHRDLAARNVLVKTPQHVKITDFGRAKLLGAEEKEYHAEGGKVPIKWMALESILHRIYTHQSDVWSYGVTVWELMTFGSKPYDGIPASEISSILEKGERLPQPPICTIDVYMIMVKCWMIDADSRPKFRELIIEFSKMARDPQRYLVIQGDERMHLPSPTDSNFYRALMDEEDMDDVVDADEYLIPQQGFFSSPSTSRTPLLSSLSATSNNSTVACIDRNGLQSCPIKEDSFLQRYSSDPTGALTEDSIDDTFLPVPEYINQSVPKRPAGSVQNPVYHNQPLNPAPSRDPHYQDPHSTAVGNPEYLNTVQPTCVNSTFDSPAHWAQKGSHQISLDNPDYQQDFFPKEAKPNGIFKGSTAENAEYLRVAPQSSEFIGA
T1 sequence (P00533 25-1210 T790M/L858R): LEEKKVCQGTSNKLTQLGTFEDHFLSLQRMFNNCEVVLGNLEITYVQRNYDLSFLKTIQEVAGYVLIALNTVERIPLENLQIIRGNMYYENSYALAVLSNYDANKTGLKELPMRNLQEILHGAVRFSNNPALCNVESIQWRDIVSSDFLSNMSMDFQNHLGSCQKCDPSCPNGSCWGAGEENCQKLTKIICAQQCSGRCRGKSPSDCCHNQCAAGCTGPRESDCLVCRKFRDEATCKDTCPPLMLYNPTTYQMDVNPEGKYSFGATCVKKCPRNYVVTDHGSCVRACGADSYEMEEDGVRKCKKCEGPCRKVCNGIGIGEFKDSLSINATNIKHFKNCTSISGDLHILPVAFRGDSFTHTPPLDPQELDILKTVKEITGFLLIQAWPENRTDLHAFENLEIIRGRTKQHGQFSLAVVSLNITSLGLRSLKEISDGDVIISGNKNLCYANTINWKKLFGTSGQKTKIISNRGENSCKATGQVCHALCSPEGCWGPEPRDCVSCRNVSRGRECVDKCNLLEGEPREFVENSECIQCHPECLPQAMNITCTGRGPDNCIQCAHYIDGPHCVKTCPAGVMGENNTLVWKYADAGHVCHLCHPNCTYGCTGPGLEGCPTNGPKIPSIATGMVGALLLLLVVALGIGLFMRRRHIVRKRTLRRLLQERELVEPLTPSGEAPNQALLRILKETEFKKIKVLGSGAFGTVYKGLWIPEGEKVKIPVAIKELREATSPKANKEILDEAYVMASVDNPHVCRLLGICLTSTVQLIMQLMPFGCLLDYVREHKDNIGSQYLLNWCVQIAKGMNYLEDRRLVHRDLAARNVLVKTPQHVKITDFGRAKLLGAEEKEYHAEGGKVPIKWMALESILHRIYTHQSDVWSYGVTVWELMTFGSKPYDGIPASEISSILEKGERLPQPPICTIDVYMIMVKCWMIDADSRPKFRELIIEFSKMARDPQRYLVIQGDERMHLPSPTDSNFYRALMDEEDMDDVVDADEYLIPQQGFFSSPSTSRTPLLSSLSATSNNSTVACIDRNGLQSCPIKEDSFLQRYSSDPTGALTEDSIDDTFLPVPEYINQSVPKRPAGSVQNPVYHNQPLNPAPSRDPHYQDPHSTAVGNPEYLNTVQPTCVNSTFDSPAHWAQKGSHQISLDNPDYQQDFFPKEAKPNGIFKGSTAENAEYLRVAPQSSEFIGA
EGFR (D770_N771insNPG), sequence (P00533 with tags, fused parts or gaps INS770NPG limits assumed): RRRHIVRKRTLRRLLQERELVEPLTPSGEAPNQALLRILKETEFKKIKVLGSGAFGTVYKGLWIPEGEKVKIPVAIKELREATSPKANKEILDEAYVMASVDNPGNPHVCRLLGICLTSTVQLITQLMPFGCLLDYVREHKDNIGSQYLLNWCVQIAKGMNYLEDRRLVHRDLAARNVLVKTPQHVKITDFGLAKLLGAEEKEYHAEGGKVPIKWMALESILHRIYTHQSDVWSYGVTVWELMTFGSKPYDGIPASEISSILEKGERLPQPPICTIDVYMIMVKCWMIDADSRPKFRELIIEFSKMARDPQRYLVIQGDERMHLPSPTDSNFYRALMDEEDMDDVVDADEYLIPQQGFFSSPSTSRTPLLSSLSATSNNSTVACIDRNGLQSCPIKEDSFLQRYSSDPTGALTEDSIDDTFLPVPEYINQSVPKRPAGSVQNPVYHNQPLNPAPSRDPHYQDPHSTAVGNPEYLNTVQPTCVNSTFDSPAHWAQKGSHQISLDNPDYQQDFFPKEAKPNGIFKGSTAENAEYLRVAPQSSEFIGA
EGFR (D746-750/C797S), sequence (P00533 with tags, fused parts or gaps DEL746-750/C797S): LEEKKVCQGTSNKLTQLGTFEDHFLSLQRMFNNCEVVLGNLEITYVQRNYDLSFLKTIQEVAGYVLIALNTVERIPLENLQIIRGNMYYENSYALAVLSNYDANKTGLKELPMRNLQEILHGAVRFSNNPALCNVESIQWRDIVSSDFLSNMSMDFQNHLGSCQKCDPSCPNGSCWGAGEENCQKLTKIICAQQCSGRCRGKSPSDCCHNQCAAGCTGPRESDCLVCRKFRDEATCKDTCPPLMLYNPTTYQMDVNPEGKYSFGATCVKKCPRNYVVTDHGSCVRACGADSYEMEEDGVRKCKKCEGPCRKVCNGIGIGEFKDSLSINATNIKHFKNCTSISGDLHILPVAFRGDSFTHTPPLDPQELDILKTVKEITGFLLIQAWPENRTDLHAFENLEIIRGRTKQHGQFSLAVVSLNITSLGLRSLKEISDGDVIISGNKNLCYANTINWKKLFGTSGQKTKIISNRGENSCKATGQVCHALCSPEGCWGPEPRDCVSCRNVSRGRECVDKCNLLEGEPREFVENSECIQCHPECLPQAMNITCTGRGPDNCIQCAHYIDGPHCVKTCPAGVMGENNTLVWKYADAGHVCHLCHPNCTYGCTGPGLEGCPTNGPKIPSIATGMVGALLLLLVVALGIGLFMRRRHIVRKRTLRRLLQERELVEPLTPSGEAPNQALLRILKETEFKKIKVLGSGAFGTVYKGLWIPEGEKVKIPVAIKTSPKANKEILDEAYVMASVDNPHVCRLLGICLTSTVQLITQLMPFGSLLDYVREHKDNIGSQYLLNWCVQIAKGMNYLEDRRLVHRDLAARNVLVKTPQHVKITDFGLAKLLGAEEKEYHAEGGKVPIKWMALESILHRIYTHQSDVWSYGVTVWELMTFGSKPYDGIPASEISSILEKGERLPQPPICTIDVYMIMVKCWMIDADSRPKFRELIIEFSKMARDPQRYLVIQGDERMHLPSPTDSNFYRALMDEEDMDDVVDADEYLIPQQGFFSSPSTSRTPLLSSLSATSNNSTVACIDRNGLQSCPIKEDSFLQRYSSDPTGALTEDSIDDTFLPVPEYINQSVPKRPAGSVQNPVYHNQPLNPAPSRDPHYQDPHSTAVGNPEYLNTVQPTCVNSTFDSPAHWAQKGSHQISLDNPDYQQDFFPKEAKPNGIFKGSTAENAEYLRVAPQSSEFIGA

SMILES | pIC50 (EGFR (D770_N771insNPG)) | pIC50 [1] | pIC50 (EGFR (D746-750/C797S)) | pIC50 [2] | pIC50 (EGFR (L858R/T790M/C797S)) | pIC50 (NCI-H1975 cells) | pIC50 [3] | pIC50 (EGFR (D746-750)) | pIC50 (HCC827 cells) | pIC50 (PC-9 cells)
CCOc1nn(CCO)c2c1/C=C/c1n[nH]c3cnc(cc13)-c1c(c(C)nn1C)OCCN(C)C2 [Ex. 69, 2-[(17E)-16-ethoxy-6,8,12-trimethyl-2,6,10,11,12,13-hexahydro-14H-5,3-(azenometheno)tripyrazolo[3,4-f:3′,4′-j:3″,4″-n][1,4]oxazacyclopentadecin-14-yl]ethan-1-ol] | 7.82 | 6.58 | 8.43 | 6.80 | 8.71 | 6.51 | 7.12 | 8.73 | 7.38 | 7.04
Cc1nn(C)c2c1-c1cc3c(n[nH]c3cn1)/C=C/c1c(OCC#N)nn([C@@H](C)CO)c1CN1CCC[C@@H]1CO2 [Ex. 64, {[(8aR,19E)-3-[(2S)-1-hydroxypropan-2-yl]-11,13-dimethyl-3,4,7,8,8a,9,11,17-octahydro-6H-14,16-(azenometheno)tripyrazolo[3,4-f:3′,4′-j:4″,3″-n]pyrrolo[2,1-c][1,4]oxazacyclopentadecin-1-yl]oxy}acetonitrile] | 9.38 | 8.55 | 8.92 | 7.53 | 9.09 | 7.58 | 8.56 | 9.39 | 8.99 | 8.25
CCOc1nn(CCO)c2c1/C=C/c1n[nH]c3cnc(cc13)-c1cnn(C)c1O[C@@H](C)CN(CC)C2 [Ex. 34, 2-[(10S,17E)-16-ethoxy-12-ethyl-8,10-dimethyl-2,8,10,11,12,13-hexahydro-14H-5,3-(azenometheno)tripyrazolo[3,4-f:3′,4′-j:4″,3″-n][1,4]oxazacyclopentadecin-14-yl]ethan-1-ol] | 9.96 | – | 9.51 | – | 9.55 | 8.76 | – | 9.92 | 9.41 | 8.37
Cc1nn(C)c2c1-c1cc3c(n[nH]c3c(C)n1)/C=C/c1c(OCC#N)nn(CCO)c1CN(C)C[C@H](C)O2 [Ex. 63, {[(10S,17E)-14-(2-hydroxyethyl)-6,8,10,12,20-pentamethyl-2,10,11,12,13,14-hexahydro-8H-5,3-(azenometheno)tripyrazolo[3,4-f:3,4′-j:4″,3″-n][1,4]oxazacyclopentadecin-16-yl]oxy}acetonitrile] | 9.41 | 8.48 | 8.96 | 7.24 | 9.22 | 8.02 | 8.62 | 9.44 | 8.57 | 7.86
CCN1Cc2c(c(OCC#N)nn2[C@@H](C)CO)/C=C/c2n[nH]c3cnc(cc23)-c2c(C)nn(C)c2O[C@@H](C)C1 [Ex. 67, {[(10S,17E)-12-ethyl-14-[(2S)-1-hydroxypropan-2-yl]-6,8,10-trimethyl-2,10,11,12,13,14-hexahydro-8H-5,3-(azenometheno)tripyrazolo[3,4-f:3′,4′-j:4″,3″-n][1,4]oxazacyclopentadecin-16-yl]oxy}acetonitrile] | 9.16 | 8.26 | 8.78 | 7.80 | 8.97 | 7.76 | 8.53 | 9.25 | 8.95 | 8.74
Cc1nn(C)c2c1-c1cc3c(n[nH]c3cn1)/C=C/c1c(OCC#N)nn([C@@H](C)CO)c1CN(C)CCO2 [Ex. 70, {[(17E)-14-[(2S)-1-hydroxypropan-2-yl]-6,8,12-trimethyl-2,10,11,12,13,14-hexahydro-8H-5,3-(azenometheno)tripyrazolo[3,4-f:3′,4′-j:4″,3″-n][1,4]oxazacyclopentadecin-16-yl]oxy}acetonitrile] | 9.39 | – | 9.16 | – | 9.51 | – | – | 9.80 | – | –
Cc1nn(C)c2c1-c1cc3c(n[nH]c3cn1)/C=C/c1c(OCC#N)nn(CCO)c1CN(C)[C@H](C)CO2 [Ex. 49, {[(11R,17E)-14-(2-hydroxyethyl)-6,8,11,12-tetramethyl-2,10,11,12,13,14-hexahydro-8H-5,3-(azenometheno)tripyrazolo[3,4-f:3′,4′-j:4″,3″-n][1,4]oxazacyclopentadecin-16-yl]oxy}acetonitrile] | 9.72 | – | 9.47 | – | 9.68 | – | – | 9.92 | – | –
Cc1nn(C)c2c1-c1cc3c(n[nH]c3cn1)/C=C/c1c(OCC#N)nn(CCO)c1CN1CCC[C@@H]1CO2 [Ex. 43, {[(8aR,19E)-3-(2-hydroxyethyl)-11,13-dimethyl-3,4,7,8,8a,9,11,17-octahydro-6H-14,16-(azenometheno)tripyrazolo[3,4-f:3′,4′-j:4″,3″-n]pyrrolo[2,1-c][1,4]oxazacyclopentadecin-1-yl]oxy}acetonitrile] | 9.74 | – | 9.64 | – | 9.80 | – | – | 10.05 | – | –
CCOc1nn(CCO)c2c1/C=C/c1n[nH]c3c(C)nc(cc13)-c1cnn(C)c1O[C@H](C)CN(CC)C2 [Ex. 37, 2-[(10R,17E)-16-ethoxy-12-ethyl-8,10,20-trimethyl-2,8,10,11,12,13-hexahydro-14H-5,3-(azenometheno)tripyrazolo[3,4-f:3′,4′-j:4″,3″-n][1,4]oxazacyclopentadecin-14-yl]ethan-1-ol] | 8.79 | – | 9.10 | – | 9.15 | – | – | 9.51 | – | –
CCN1CCOc2c(c(C)nn2C)-c2cc3c(n[nH]c3cn2)/C=C/c2c(OCC#N)nn([C@@H](C)CO)c2C1 [Ex. 66, {[(17E)-12-ethyl-4-[(2S)-1-hydroxypropan-2-yl]-6,8-dimethyl-2,10,11,12,13,14-hexahydro-8H-5,3-(azenometheno)tripyrazolo[3,4-f:3′,4′-j:4″,3″-n][1,4]oxazacyclopentadecin-16-yl]oxy}acetonitrile] | 9.38 | – | 8.98 | – | 9.27 | – | – | 9.44 | – | –
